# Data reported in patent US20070117743A1, “New antitumoral compounds” (priority 2003, published 2007).
# Read-outs that look alike come from different tables or passages of the source.
# Experiments:
# Type in all cases: cell-based, human
# [1] = tested on: LNCaP; test: SRB colorimetric assay of cell growth and viability, LNCaP; details: 48 hours exposure; for GI50: read-out: GI50 LN-caP; for CC50: read-out: LC50 LN-caP
# Description: The finality of this assay is to interrupt the growth of a “in vitro” tumor cell culture by means a continued exhibition of the cells to the sample to be testing.
# This form of the assay employs 96 well cell culture microplates of 9 mm diameter (Faircloth, 1988; Mosmann, 1983). Most of the cell lines are obtained from American Type Culture Collection (ATCC) derived from different human cancer types.
# Cells are maintained in RPMI 1640 10% FBS, supplemented with 0.1 g/l penicillin and 0.1 g/l streptomycin sulfate and then incubated at 37° C., 5% CO2 and 98% humidity. For the experiments, cells were harvested from subconfluent cultures using trypsin and resuspended in fresh medium before plating.
# Cells are seeded in 96 well microtiter plates, at 5×10^3 cells per well in aliquots of 195 μL medium, and they are allowed to attach to the plate surface by growing in drug free medium for 18 hours. Afterward, samples are added in aliquots of 5 μL in a ranging from 10 to 10^−8 μg/mL, dissolved in DMSO:EtOH:PBS (0.5:0.5:99). After 48 hours exposure, the antitumor effect are measured by the SRB methodology: cells are fixed by adding 50 μL of cold 50% (wt/vol) trichloroacetic acid (TCA) and incubating for 60 minutes at 4° C. Plates are washed with deionized water and dried. One hundred μL of SRB solution (0.4% wt/vol in 1% acetic acid) is added to each microtiter well and incubated for 10 minutes at room temperature. Unbound SRB is removed by washing with 1% acetic acid. Plates are air dried and bound stain is solubilized with Tris buffer. Optical densities are read on a automated spectrophotometric plate reader at a single wavelength of 490 nm.
# The values for mean+/− SD of data from triplicate wells are calculated. Some parameters for cellular responses can be calculated: GI=growth inhibition, TGI=total growth inhibition (cytostatic effect) and LC=cell killing (cytotoxic effect).
# [2] = tested on: A-549; test: SRB colorimetric assay of cell growth and viability, A-549; details: 48 hours exposure; for GI50: read-out: GI50 A-549; for CC50: read-out: LC50 A-549
# [3] = tested on: PANC-1; test: SRB colorimetric assay of cell growth and viability, PANC-1; details: 48 hours exposure; for CC50: read-out: LC50 PANC-1
# [4] = tested on: IGROV-ET; test: SRB colorimetric assay of cell growth and viability, IGROV-ET; details: 48 hours exposure; for CC50: read-out: LC50 IGROV-ET
# [5] = tested on: HeLa-APL; test: SRB colorimetric assay of cell growth and viability, HeLa-APL; details: 48 hours exposure; for CC50: read-out: LC50 HELA-APL
# [6] = tested on: HeLa; test: SRB colorimetric assay of cell growth and viability, HeLa; details: 48 hours exposure; for CC50: read-out: LC50 HELA
# [7] = tested on: LoVo-Dox; test: SRB colorimetric assay of cell growth and viability, LoVo-Dox; details: 48 hours exposure; for CC50: read-out: LC50 LOVO-DOX
# How it was run: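 48 h continuous exposure, 10 to 10^−8 μg/mL; 5×10^3 cells/well, 18 h attachment; TCA fix, 0.4% SRB, OD 490 nm. Triplicates; GI, TGI, LC derived.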
# [8] = tested on: IGROV-1; test: SRB colorimetric assay of cell growth and viability, IGROV-1; details: 48 hours exposure
# [9] = tested on: SK-MEL-28; test: SRB colorimetric assay of cell growth and viability, SK-MEL-28; details: 48 hours exposure; for CC50: read-out: LC50 MEL-28
# [10] = tested on: HT-29; test: SRB colorimetric assay of cell growth and viability, HT-29; details: 48 hours exposure; for GI50: read-out: GI50 HT-29; for CC50: read-out: LC50 HT-29
# [11] = tested on: DU-145; test: SRB colorimetric assay of cell growth and viability, DU-145; details: 48 hours exposure
# [12] = tested on: LoVo; test: SRB colorimetric assay of cell growth and viability, LoVo; details: 48 hours exposure; for CC50: read-out: LC50 LOVO
# [13] = tested on: K-562; test: SRB colorimetric assay of cell growth and viability, K-562; details: 48 hours exposure; for CC50: read-out: LC50 K-562
structure (smiles),measurement,setting,value
"C/C=C1\NC(=O)[C@H](Cc2ccccc2)NC(=O)[C@@H](C(C)C)NC(=O)[C@@H]([C@@H](C)CC)NC(=O)[C@H](NC(=O)[C@H](NC(=O)[C@H](CCCN)NC(=O)[C@H]2CCCCN2C(=O)[C@H](NC(=O)[C@@H](NC(=O)[C@@H](NC(=O)[C@H](NC(=O)CC[C@@H](C)CC)C(C)C)[C@@H](C)O)C(C)C)C(C)C)[C@@H](C)CC)[C@@H](C)OC(=O)[C@H](C(C)C)NC1=O [Compound 60, [D-Pip^9, (4S)-MeHex^14]-KF]",TGI LN-caP,[1]; SRB,2.59E−06 Molar
same,GI50,[1]; SRB,1230 nM
same,CC50,[1]; SRB,5430 nM
same,TGI A-549,[2]; A-549,3.66E−06 Molar
same,GI50,[2]; A-549,1610 nM
same,CC50,[2]; A-549,6700 nM
same,GI50,[3]; PANC-1,6700 nM
same,TGI PANC-1,[3]; PANC-1,6.70E−06 Molar
same,CC50,[3]; PANC-1,6700 nM
same,GI50,[4]; SRB,1210 nM
same,TGI IGROV-ET,[4]; SRB,2.68E−06 Molar
same,CC50,[4]; SRB,5950 nM
same,GI50,[5]; HELA-APL,2050 nM
same,TGI HELA-APL,[5]; HELA-APL,4.42E−06 Molar
same,CC50,[5]; HELA-APL,6700 nM
same,GI50,[6]; HELA,3150 nM
same,TGI HELA,[6]; HELA,6.70E−06 Molar
same,CC50,[6]; HELA,6700 nM
same,GI50,[7]; LOVO-DOX,624 nM
same,TGI LOVO-DOX,[7]; LOVO-DOX,1.98E−06 Molar
same,CC50,[7]; LOVO-DOX,6140 nM
same,GI50,[8]; SRB,1240 nM
same,LC50 (concentration causing 50% net cell killing),[8]; SRB,6280 nM
same,TGI IGROV,[8]; SRB,2.79E−06 Molar
same,GI50,[9]; SRB,1660 nM
same,TGI MEL-28,[9]; SRB,3.07E−06 Molar
same,CC50,[9]; SRB,5680 nM
same,TGI HT-29,[10]; HT-29,2.16E−06 Molar
same,GI50,[10]; HT-29,1040 nM
same,CC50,[10]; HT-29,4470 nM
same,GI50,[11]; SRB,1640 nM
same,LC50 (concentration causing 50% net cell kill),[11]; SRB,6160 nM
same,TGI DU-145,[11]; SRB,3.17E−06 Molar
same,GI50,[12]; LOVO,1030 nM
same,TGI LOVO,[12]; LOVO,2.44E−06 Molar
same,CC50,[12]; LOVO,5770 nM
same,GI50,[13]; K-562,5300 nM
same,TGI K-562,[13]; K-562,6.70E−06 Molar
same,CC50,[13]; K-562,6700 nM
"C/C=C1\NC(=O)[C@H](Cc2ccccc2)NC(=O)[C@@H](C(C)C)NC(=O)[C@@H]([C@@H](C)CC)NC(=O)[C@H](NC(=O)[C@H](NC(=O)[C@H](CCCC[N+](C)(C)C)NC(=O)[C@H]2CCCN2C(=O)[C@H](NC(=O)[C@@H](NC(=O)[C@@H](NC(=O)[C@H](NC(=O)CC[C@@H](C)CC)C(C)C)[C@@H](C)O)C(C)C)C(C)C)[C@@H](C)CC)[C@@H](C)OC(=O)[C@H](C(C)C)NC1=O [Compound 93, [N^ε(Me)3-Lys^8, (4S)-MeHex^14]-KF]",TGI LN-caP,[1]; SRB,2.16E−06 Molar
same,GI50,[1]; SRB,795 nM
same,CC50,[1]; SRB,5880 nM
same,TGI A-549,[2]; SRB,6.97E−07 Molar
same,GI50,[2]; SRB,186 nM
same,CC50,[2]; SRB,2440 nM
same,GI50,[3]; SRB,1110 nM
same,TGI PANC-1,[3]; SRB,2.08E−06 Molar
same,CC50,[3]; SRB,3900 nM
same,GI50,[4]; SRB,266 nM
same,TGI IGROV-ET,[4]; SRB,7.17E−07 Molar
same,CC50,[4]; SRB,2490 nM
same,GI50,[5]; SRB,651 nM
same,TGI HELA-APL,[5]; SRB,1.43E−06 Molar
same,CC50,[5]; SRB,3150 nM
same,GI50,[6]; SRB,491 nM
same,TGI HELA,[6]; SRB,1.25E−06 Molar
same,CC50,[6]; SRB,3250 nM
same,GI50,[7]; SRB,78.2 nM
same,TGI LOVO-DOX,[7]; SRB,1.82E−07 Molar
same,CC50,[7]; SRB,426 nM
same,GI50,[8]; SRB,214 nM
same,LC50 (concentration causing 50% net cell killing),[8]; SRB,866 nM
same,TGI IGROV,[8]; SRB,3.90E−08 Molar
same,GI50,[9]; SRB,320 nM
same,TGI MEL-28,[9]; SRB,9.51E−07 Molar
same,CC50,[9]; SRB,2600 nM
same,TGI HT-29,[10]; SRB,2.72E−07 Molar
same,GI50,[10]; SRB,168 nM
same,CC50,[10]; SRB,439 nM
same,GI50,[11]; SRB,6.21 nM
same,LC50 (concentration causing 50% net cell kill),[11]; SRB,44 nM
same,TGI DU-145,[11]; SRB,1.66E−08 Molar
same,GI50,[12]; SRB,80.8 nM
same,TGI LOVO,[12]; SRB,2.08E−07 Molar
same,CC50,[12]; SRB,537 nM
same,GI50,[13]; SRB,1490 nM
same,TGI K-562,[13]; SRB,2.72E−06 Molar
same,CC50,[13]; SRB,4940 nM
"C/C=C1\NC(=O)[C@H](Cc2ccccc2)NC(=O)[C@@H](C(C)C)NC(=O)[C@@H]([C@@H](C)CC)NC(=O)[C@H](NC(=O)[C@H](NC(=O)[C@H](CCCN)NC(=O)[C@H]2CCCN2C(=O)[C@H](NC(=O)[C@@H](NC(=O)[C@@H](NC(=O)[C@H](NC(=O)CCCC(C)C)[C@H](C)O)[C@@H](C)O)C(C)C)C(C)C)[C@@H](C)CC)[C@@H](C)OC(=O)[C@H](C(C)C)NC1=O [Compound 41, [D-Thr^13]-KF]",TGI LN-caP,[1],6.76E−06 Molar
same,GI50,[1],2280 nM
same,CC50,[1],≥ 6760 nM
same,TGI A-549,[2],2.72E−06 Molar
same,GI50,[2],1630 nM
same,CC50,[2],4530 nM
same,GI50,[3],2690 nM
same,TGI PANC-1,[3],6.76E−06 Molar
same,CC50,[3],≥ 6760 nM
same,GI50,[4],515 nM
same,TGI IGROV-ET,[4],1.35E−06 Molar
same,CC50,[4],3160 nM
same,GI50,[5],1240 nM
same,TGI HELA-APL,[5],2.15E−06 Molar
same,CC50,[5],3740 nM
same,GI50,[6],1020 nM
same,TGI HELA,[6],2.00E−06 Molar
same,CC50,[6],3940 nM
same,GI50,[7],126 nM
same,TGI LOVO-DOX,[7],2.53E−07 Molar
same,CC50,[7],509 nM
same,GI50,[8],777 nM
same,LC50 (concentration causing 50% net cell killing),[8],3130 nM
same,TGI IGROV,[8],1.56E−06 Molar
same,GI50,[9],1230 nM
same,TGI MEL-28,[9],2.20E−06 Molar
same,CC50,[9],3960 nM
same,TGI HT-29,[10],1.57E−06 Molar
same,GI50,[10],730 nM
same,CC50,[10],3410 nM
same,GI50,[11],1000 nM
same,LC50 (concentration causing 50% net cell kill),[11],3730 nM
same,TGI DU-145,[11],1.93E−06 Molar
same,GI50,[12],155 nM
same,TGI LOVO,[12],7.23E−07 Molar
same,CC50,[12],2900 nM
same,GI50,[13],5850 nM
same,TGI K-562,[13],6.76E−06 Molar
same,CC50,[13],≥ 6760 nM
